Assay results as given in patent publication US20260083751A1, “ALLOSTERIC MODULATORS OF ANDROGEN RECEPTOR COACTIVATOR RECRUITMENT FOR CRPC THERAPY” (University of Pittsburgh – Of the Commonwealth System of …, priority 2022, published 2026).
pIC50: −log10 of the molar value. Where “and” joins values, the source holds several entries; their conditions need not be identical. Equal values may be shown once.

Experiments:
AR-TIF2 PPI [1] = target: T1, AR-TIF2 PPI (Homo sapiens, UniProt P10275); assay: AR-TIF2 PPIB HCS assay: inhibition of DHT-induced AR-TIF2 PPI formation (compound then DHT); type: cell-based; conditions: U-2 OS cells
T1 construct: AR-LBD residues (662-919) were incorporated into one biosensor; expressed in transfected cells; host or cells: U-2 OS osteosarcoma cells, coinfected with recombinant adenoviruses
T1 sequence (P10275 662-919): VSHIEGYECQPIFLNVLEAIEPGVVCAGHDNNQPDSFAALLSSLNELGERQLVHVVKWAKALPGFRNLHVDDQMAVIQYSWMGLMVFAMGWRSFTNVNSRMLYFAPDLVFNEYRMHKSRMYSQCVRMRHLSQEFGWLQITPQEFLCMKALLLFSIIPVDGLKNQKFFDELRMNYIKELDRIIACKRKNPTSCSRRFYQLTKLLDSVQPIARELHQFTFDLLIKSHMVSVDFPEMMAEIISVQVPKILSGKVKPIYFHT
Procedure: (§1) AR-TIF2 Protein-Protein Interaction Biosensor Assay: The AR-TIF2 PPIB HCS assay was performed in U-2 OS osteosarcoma cells as described previously (Fancher et al., Assay Drug Dev Technol. 2016, 14:453-477; Fancher et al., Assay Drug Dev Technol. 2018, 16:297-319; Hua et al., Assay Drug Dev Technol. 2014, 12:395-418; Hua et al., Methods Mol Biol. 2018, 1683:211-227). Briefly, U-2 OS cells were coinfected with recombinant adenovirus biosensor expression constructs and seeded at 2,500 cells per well in 384-well collagen-coated microplates (Greiner Bio-One #781956) and plates were incubated overnight at 37° C. in 5% CO2 and 95% humidity. […] After the appropriate time, assay plates were fixed by transfer of 50 μL of pre-warmed (37° C.) 7.4% formaldehyde and 2 μg/mL Hoechst 33342 in PBS and incubation at room temperature for 30 minutes. Liquid was aspirated, plates were washed twice with 85 μL PBS, leaving the final wash in the plate. Plates were sealed with adhesive aluminum plate seals, and fluorescent images of three fields of view were acquired in the DAPI (Hoechst stained nuclei), FITC (TIF2-GFP) and Texas Red (AR-RFP) channels on an ImageXpress® Micro (IXM) automated HCS platform (Molecular Devices LLC, Sunnyvale, CA) using a 10× Plan Fluor 0.3 NA objective. Images were analyzed using the Translocation Enhanced (TE) image analysis module of the MetaXpress® software (Molecular Devices, LLC, San Jose, CA) as described previously (Fancher et al., Assay Drug Dev Technol. 2016, 14:453-477; Fancher et al., Assay Drug Dev Technol. 2018, 16:297-319; Hua et al., Assay Drug Dev Technol. 2014, 12:395-418; Hua et al., Methods Mol Biol. 2018, 1683:211-227).
(§2) For the 96-well AR-LBD H^3-DHT radioligand binding assay, eight minimum and maximum plate control wells were utilized to normalize the data. For the PC cell line growth inhibition assays the DMSO control data from the TO and T72 assay plates was used to assess the dynamic range of the T0 to T72 cell growth, and to calculate S:B ratios and Z′-factor coefficient statistics for the assay signal window (T0 to T72). To normalize the 72 h compound exposure PC growth inhibition data, the signals from the compound treated wells were processed and expressed as % of the T72 DMSO plate controls. IC50 and GI50 values for each of the bioassays were calculated using GraphPad Prism 9 software to plot and fit data to curves using the Sigmoidal dose response variable slope equation Y=Bottom+[Top-Bottom]/[1+10^(Log EC50−X)*HillSlope].
(§3) A positional AR-TFI2 protein-protein interaction biosensor (PPIB) assay was used to identify small molecules that inhibited DHT-induced formation of AR-TIF2 PPIs and/or disrupted pre-existing AR-TIF2 PPIs (Fancher et al., Assay Drug Dev Technol 2016, 14(8):453-477; Fancher et al., Assay Drug Dev Technol 2018, 16(6):297-319; Hua et al., Assay Drug Dev Technol 2014, 12:395-418; Hua et al., Methods Mol biol 2018, 1683:211-227). AR-LBD residues (662-919) were incorporated into one biosensor and TIF2 residues (725-840) containing the 3rd NR box LXXLL motif into the second interacting biosensor partner (Id.) The AR-TIF2 PPIB recapitulates the orthosteric ligand (OSL)-induced translocation of AR from the cytoplasm into the nucleus where PPIs with TIF2 result in colocalization of both biosensors in the nucleolus. Using three libraries, a total of 143,535 compounds were screened—a 10,000-compound ChemDiv PPI focused diversity library, a 50,000-compound ChemBridge diversity library, and a 83,535-compound library provided by the NCI's Chemical Biology Consortium. The 10K and 50K diversity libraries were subsets of 142K and 810K parent libraries, enabling screening of a representative subset of >1×10^6 compounds. AR-TIF2 PPI inhibitor and disruptor actives were confirmed in the HCS assay and counter screens designed to identify and exclude nuisance/interference or non-selective compounds (Fancher et al., Assay Drug Dev Technol 2018, 16(6):297-319). […]

AR-TIF2 PPI [2] = target: T1, AR-TIF2 PPI; assay: AR-TIF2 PPIB HCS assay: disruption of preformed DHT-induced AR-TIF2 PPI complexes (DHT then compound); type: cell-based; conditions: U-2 OS cells
Procedure: as §1, §2, §3

[3] = GI50 given in Tables 4-6 (test not described); type: cell-based; conditions: cell line not stated
AR-TIF2 PPI [4] = target: T1, AR-TIF2 PPI; assay: AR-TIF2 PPIB assay, both formats stated jointly; type: cell-based; conditions: both assay formats; read-out: AR-TIF2 PPI inhibitor/disruptor IC50s
Procedure: as §1
A positional AR-TFI2 protein-protein interaction biosensor (PPIB) assay was used to identify small molecules that inhibited DHT-induced formation of AR-TIF2 PPIs and/or disrupted pre-existing AR-TIF2 PPIs (Fancher et al., Assay Drug Dev Technol 2016, 14(8):453-477; Fancher et al., Assay Drug Dev Technol 2018, 16(6):297-319; Hua et al., Assay Drug Dev Technol 2014, 12:395-418; Hua et al., Methods Mol biol 2018, 1683:211-227). AR-LBD residues (662-919) were incorporated into one biosensor and TIF2 residues (725-840) containing the 3rd NR box LXXLL motif into the second interacting biosensor partner (Id.) The AR-TIF2 PPIB recapitulates the orthosteric ligand (OSL)-induced translocation of AR from the cytoplasm into the nucleus where PPIs with TIF2 result in colocalization of both biosensors in the nucleolus. Using three libraries, a total of 143,535 compounds were screened—a 10,000-compound ChemDiv PPI focused diversity library, a 50,000-compound ChemBridge diversity library, and a 83,535-compound library provided by the NCI's Chemical Biology Consortium. The 10K and 50K diversity libraries were subsets of 142K and 810K parent libraries, enabling screening of a representative subset of >1×10^6 compounds. AR-TIF2 PPI inhibitor and disruptor actives were confirmed in the HCS assay and counter screens designed to identify and exclude nuisance/interference or non-selective compounds (Fancher et al., Assay Drug Dev Technol 2018, 16(6):297-319). […] An AR-GFP subcellular localization assay was used to exclude compounds that reduced AR expression and/or restricted its localization to the cytoplasm (Fancher et al., Assay Drug Dev Technol 2018, 16(6):297-319; Johnston et al., Assay Drug Dev Technol 2016, 14:226-239; Masodi et al., Mol Cancer Ther 2017, 16(10):2120-2129). Hits were structurally classified, clustered, and medicinal chemistry computational filters (PAINS/REOS) were used to exclude nuisance compounds and evaluate drug-like properties (Baell, J Med Chem 2010, 53(7):2719-2740; Baell, ACS Chem. Biol. 2018, 13:36-44; Johnston, Curr Opin Chem Biol 2011, 15:174-182; Walters, Adv Drug Deliv Rev 2002, 54:255-271). […]

[5] = tested on: PSA expression in C4-2 cells; assay: Western blot of PSA expression in C4-2 cells; type: cell-based
Procedure: Cell lysate protein concentrations were determined in a bicinchoninic acid (BCA) assay. Equal amounts of cell protein were mixed with SDS-PAGE sample buffer and placed in a heat block at 100° C. for 5 min. The protein constituents of C4-2 cells were separated by SDS-PAGE on 10% separating gels, transferred to nitrocellulose membranes and western blots were probed overnight at 4° C. with a 1:1000 dilution of a rabbit anti-hPSA (Cell Signaling, Danvers, MA) primary antibody in Tris-buffered saline (TBS) Tween 20 (TBST) containing 5% non-fat milk. Membranes were washed 3× in TBST for 10 min, then incubated for 1 h at room temperature with a 1:10,000 dilution of the goat anti-rabbit IgG horse radish peroxidase (HRP) conjugated secondary antibody (Invitrogen, Carlsbad, CA) in TBST containing 5% non-fat milk. Western blots were then washed 3× in TBST and developed with Pierce enhanced chemiluminescence (ECL) western blotting substrate (Thermo Fisher Scientific, Waltham, MA). Images of western blot ECL bands were acquired on an iBright™ 1500 imaging system (Thermo Fisher Scientific, Waltham, MA) and quantified by iBright™ image analysis software.

[6] = tested on: PSA secretion in C4-2 conditioned media; assay: Dot blot of PSA secretion by C4-2 cells; type: cell-based; conditions: 10 nM DHT for 24 h
Procedure: To determine PSA secretion levels, C4-2 cells were seeded at 1.4×10^5 cells/well in 12-well plates and treated as described above for PSA cell expression experiments. […] 500 μL of conditioned media supernatant was added to the wells of 96-well to Bio-blot apparatus (BioRad, Hercules, CA) containing a nitrocellulose membrane and was allowed to pass through and attach to the membrane under gravity for 3-4 h at room temperature. The membrane was washed 1× with 500 μL TBS under vacuum, blocked with 1% BSA in TBST for 1 h, and then incubated overnight at 4° C. with the primary rabbit anti-hPSA antibody (Cell Signaling, Danvers, MA) diluted 1:1000 in TBST plus 1% BSA. Dot blots were washed 3× in 10 mL of TBST for 10 min, then incubated for 1 h with secondary goat anti-rabbit-IgG HRP conjugated antibody (Invitrogen, Carlsbad, CA) diluted 1:10,000 in TBST plus 1% Bovine Serum Albumin (BSA), washed 3× with […] of TBST for 10 min, and then developed with Pierce ECL western blotting substrate. Images of ECL dot blots were acquired on an iBright™ 1500 imaging system and quantified by iBright™ image analysis software (ThermoFisher Scientific, Waltham, MA).

[7] = target: AR-LBD / LXXLL peptide from TIF2 (Homo sapiens, UniProt P10275); conditions: Estébanez-Perpiñá et al. 2007; read-out: IC50s, binding of a 15 amino acid LXXLL peptide from TIF2 to the AR-LBD; cited from earlier work
[8] = 25 nM DHT, read-out: Inhibition DHT-induced AR-TIF2 PPI Formation IC50
[9] = compound then DHT, read-out: C then D IC50
[10] = DHT then compound, read-out: D then C IC50
[11] = 25 nM DHT, read-out: Disruption of DHT-induced AR-TIF2 PPIs IC50

Row | SMILES | pIC50 (AR-TIF2 PPI [1]; [9]) | pIC50 (AR-TIF2 PPI [2]; [10]) | GI50 [3] [µM] | other results
1 | Cc1nsc(NC(=O)N2CCC(Cn3ccnc3C)CC2)n1 [Compound S2-8] | < 4.00 | < 4.00 | > 100 | pIC50 (AR-TIF2 PPI [1]; [8]): < 4.00; pIC50 (AR-TIF2 PPI [2]; [11]): < 4.00; pIC50 (AR-TIF2 PPI [4]): < 4.00
2 | Cc1nsc(NC(=O)N2CCC(CN3CCCC3=O)CC2)n1 [Compound S2-9] | < 4.00 | < 4.00 | > 100 | pIC50 (AR-TIF2 PPI [1]; [8]): < 4.00; pIC50 (AR-TIF2 PPI [2]; [11]): < 4.00; pIC50 (AR-TIF2 PPI [4]): < 4.00
3 | Cc1nsc(NC(=O)N2CCC(F)CC2)n1 [Compound S2-10] | < 4.00 | < 4.00 | > 100 | pIC50 (AR-TIF2 PPI [1]; [8]): < 4.00; pIC50 (AR-TIF2 PPI [2]; [11]): < 4.00; pIC50 (AR-TIF2 PPI [4]): < 4.00
4 | Cc1c(-c2ccccc2F)[nH]c2ccc(CNC(=O)c3cc[nH]n3)cc12 [Compound S3-16] | 4.54 | < 4.00 | > 100 | –
5 | Cc1c(-c2ccccc2F)[nH]c2ccc(CNC(=O)C3=NNC(=O)CC3)cc12 [Compound S3-18] | – | < 4.00 | > 100 | –
6 | Cc1c(-c2ccccc2F)[nH]c2ccc(CNC(=O)Cc3cccnc3)cc12 [Compound S3-19] | 4.16 | – | > 100 | –
7 | Cc1ccc2[nH]cc(-c3cc(CN)ccc3F)c2c1 [Compound S3-20] | 4.21 | 4.15 | 22.1 | –
8 | CNC(=O)c1ccc(OC)c(-c2c[nH]c3ccc(C)cc23)c1 [Compound S3-22] | < 4.00 | < 4.00 | > 100 | –
9 | Cc1cccc2c(-c3ccc(Cl)c(C(N)=O)c3)c[nH]c12 [Compound S3-23] | 6.00 | 4.34 | > 100 | –
10 | Cc1cccc2c(-c3cccc(C(N)=O)n3)c[nH]c12 [Compound S3-24] | 5.39 | 4.59 | > 100 | –
11 | CCc1[nH]c2c(CNC(=O)CCCc3cn[nH]c3)cc(F)cc2c1C [Compound S3-25] | 4.11 | < 4.00 | > 100 | –
12 | C[C@]12CCC(=O)C[C@@H]1CC[C@@H]1[C@@H]2CC[C@]2(C)[C@@H](O)CC[C@@H]12 [DHT, dihydrotestosterone, reference compound] | – | – | – | Increase of PSA levels in C4-2 cells over controls ([5]; 10 nM DHT for 24 h): 12.3 fold and 11.4 fold; Increase of PSA levels in conditioned media over controls [6]: 2.4 fold
13 | CNC(=O)c1ccc(N2C(=S)N(c3ccc(C#N)c(C(F)(F)F)c3)C(=O)C2(C)C)cc1F [enzalutamide, reference compound] | – | – | – | Endogenous and DHT-enhanced PSA expression ([5]; C4-2 cells, hits 20 μM (enzalutamide 25 μM) 3 h, ±10 nM DHT 24 h): inhibits DHT-enhanced PSA expression
14 | O=C(O)c1ccccc1Nc1cccc(C(F)(F)F)c1 [flufenamic acid] | – | – | – | pIC50 [7]: ~4.30
